Experimental data: US11976311B2, “Method of adjusting the pH of a pretreatment solution using carbon dioxide useful for integrating saccharification and fermentation of a biomass” (National Technology & Engineering Solutions of Sandia, LLC, priority 2014, dated 2024)

Key:
[1] = pH of [Ch][Lys]/water systems and CO2-based pH adjustment; assay type: physicochemical
Source text: With the increasing of CO2 pressure from 0 to 0.1 MPa, pH values of all [Ch][Lys]-water solutions decrease sharply from pH of […] to pH of 7-9. Further increasing CO2 pressure led to further pH drop. For 20 wt % [Ch][Lys]-water solution, a pH value of 7.2 was obtained at a CO2 pressure of around 2 MPa. However, only 0.7 MPa CO2 pressure is needed to drop the pH of 10 wt % [Ch][Lys]-water solution to 7.1. While, only 0.1 MPa CO2 pressure is needed to low the pH of the 5 wt % [Ch][Lys]-water solution to around 6.9, similar to or lower than the typical pressure deployed for carbonating a can of Soda. The process is reversible by increasing temperature or bubbling N2, driving out the CO2 and restoring the pH to its original value. In addition, a small fraction of alcohol (e.g. ethylene glycol) could be introduced for further enhancing CO2 absorption efficiency if necessary.^20
All the CO2 absorption experiments were carried out at room temperature in a 25 mL stainless steel Parr reactor (Parr instrument Co., USA) equipped with a magnetic stirrer plate and CO2 cylinder (>99.9% CO2 purity). In a typical procedure, 10 mL a certain concentration of [Ch][Lys] aqueous system was added into the Parr. After being sealed, the Parr was stirred at room temperature, and the absorption pressure was held constant by a backpressure valve. After the absorption was completed, the Parr was cooled to ambient temperature, and the remaining CO2 was removed slowly. Then, the corresponding pH value of the mixture was analyzed by Orion™ 3-Star Benchtop pH Meter. To elucidate the interaction between CO2 with side amine and terminal amine groups of [Ch][Lys] in H2O, we conducted ^13C nuclear magnetic resonance (NMR) analysis of [Ch][Lys] before and after CO2 absorption. Furthermore, two-dimensional (2D) […] heteronuclear single quantum coherence (HSQC) and heteronuclear multiple bond correlation (HMBC) nuclear magnetic resonance (NMR) analysis were also carried out on [Ch][Lys] before and after CO2 absorption.

[2] = tested on: CTec2+HTec2 (9:1, v/v) commercial enzyme mixtures; assay: Compatibility of ILs with commercial enzyme mixtures (enzymatic hydrolysis of microcrystalline cellulose); assay type: biochemical; details: pH adjusted to 4.5 with hydrochloric acid
Description: (§1) In another set of pretreatment, switchgrass (100 mg, dry weight) was mixed with 5, 10, and 20% [Ch][Lys]-water solutions at a 10% biomass loading in a 15 ml capped glass pressure tube and pretreated at 140° C. for 1 h. After pretreatment, CTec2+HTec2 (9:1 v/v) mixture was directly added to the pretreatment slurry at 10 mg EP per g starting biomass for saccharification at the same conditions as stated above. In addition, microcrystalline cellulose (MCC) was hydrolyzed by 30 mg/g starting biomass for CTec2+HTec2, spiked with 0-30% IL.

[3] = tested on: Saccharomyces cerevisiae strain BY4741; assay: Toxicity screen of ionic liquids on Saccharomyces cerevisiae strain BY4741; assay type: cell-based; details: 200 mM IL, SC medium containing 0.2% glucose, pH adjusted to 7 with hydrochloric acid if necessary
Description: Both choline, the cation precursor and lysine, the anion precursor are essential nutrients for microbial growth, which are known to be non-toxic and biodegradable. In this study, we carried out toxicity screen of 15 typical ILs including [Ch][Lys], [Ch][OAc] and imidazolium based ILs, [[…]][OAc] on Saccharomyces cerevisiae strain BY4741 at different IL concentrations of 25 and 200 mM (FIG. 2A-2B) in SC medium containing 0.2% glucose with the pH of the IL solution adjusted to 7 using hydrochloric acid if necessary. It aims to test whether the IL, [Ch][Lys] is compatible to commercial enzymes and biofuel producing microbes. As shown in FIG. 2A-2D, the microbial growth was completely jeopardized in a concentration of 200 mM ( 4.3 wt %) for most of the ILs.

[4] = tested on: commercial enzyme mixtures (CTec2+HTec2); assay: Effect of acid-induced pH adjustment of 5% [Ch][Lys] solution on enzymatic hydrolysis of MCC; assay type: biochemical; details: for relative activities of enzymes on MCC: 5% [Ch][Lys] solution, pH adjusted with the named acid
Description: To enable a one-pot process, the pH mis-match must be adjusted to lower the pH of pretreatment slurry to a range suitable to enzymes and microbes. We tested a series of mineral and organic acids such as hydrochloric acid, phosphoric acid, sulfuric acid, acetic acid, citric acid, lactic acid, formic acid for the pH adjustment of 5% [Ch][Lys] solution.
as §1

C[N+](C)(C)CCO.NCCCC[C@H](N)C(=O)[O-] [[Ch][Lys], cholinium lysinate]
pH ([1]; 5 wt % [Ch][Lys]-water, 0.1 MPa CO2 pressure): around 6.9 | pH ([1]; 10 wt % [Ch][Lys]-water, 0.7 MPa CO2 pressure): 7.1 | pH ([1]; 20 wt % [Ch][Lys]-water, CO2 pressure around 2 MPa): 7.2 | pH ([1]; [Ch][Lys] or aqueous [Ch][Lys] solution during and after pretreatment): 12-14 | pH ([1]; all [Ch][Lys]-water solutions (5, 10, 20 wt %), CO2 pressure 0.1 MPa, room temperature): 7-9 | relative activity of enzymes (sugar yield from hydrolysis of microcrystalline cellulose) vs no-IL control ([2]; 5% IL): ~70% | relative activity of enzymes (sugar yield from hydrolysis of microcrystalline cellulose) vs no-IL control ([2]; 10% IL): ~50% | microbial growth [3]: no retard of microbial growth | enzyme activity ([4]; 5% [Ch][Lys] solution without pH adjustment): very low

O=C(O)CC(O)(CC(=O)O)C(=O)O [citric acid]
relative activities of enzymes on MCC [4]: outperforms the other acids

Cl [hydrochloric acid]
relative activities of enzymes on MCC [4]: outperforms the other acids

O=S(=O)(O)O [sulfuric acid]
relative activities of enzymes on MCC [4]: outperforms the other acids
